pKd: −log10 of the molar value.
Legend:
[1] = biological target: Rev responsive element (RRE) RNA; experiment: Dissociation constant of compound with Rev-responsive element (RRE) IIB RNA was determined by the competition assay; type: nucleic-acid assay
[2] = tested on: Rev responsive element (RRE) RNA; experiment: Ratio of the dissociation constant between Rev37-50 and the PNA-peptide; type: nucleic-acid assay

Row | pKd [1] | Ratio [2] | SMILES
1 | 7.41 | 2.2 | Cc1cn(CC(=O)N(CCNC(=O)CCC(=O)O)CC(=O)N[C@@H](C)C(=O)N[C@@H](CCCNC(=N)N)C(=O)N[C@@H](CCCNC(=N)N)C(=O)N[C@@H](CC(N)=O)C(=O)N[C@@H](CCCNC(=N)N)C(=O)N[C@@H](CCCNC(=N)N)C(=O)N[C@@H](CCCNC(=N)N)C(=O)N[C@@H](CCCNC(=N)N)C(=O)N[C@@H](Cc2c[nH]c3ccccc23)C(=O)N[C@@H](CCCNC(=N)N)C(=O)N[C@@H](CCC(=O)O)C(=O)N[C@@H](CCCNC(=N)N)C(=O)N[C@@H](CCC(N)=O)C(=O)N[C@H](CCCNC(=N)N)C(N)=O)c(=O)[nH]c1=O
2 | 7.36 | 2 | CC(=O)N(CCNC(=O)NCC(=O)O)CC(=O)N[C@H](C)C(=O)N[C@@H](CCCNC(=N)N)C(=O)N[C@@H](CCCNC(=N)N)C(=O)N[C@@H](CC(N)=O)C(=O)N[C@@H](CCCNC(=N)N)C(=O)N[C@@H](CCCNC(=N)N)C(=O)N[C@@H](CCCNC(=N)N)C(=O)N[C@@H](CCCNC(=N)N)C(=O)N[C@@H](Cc1c[nH]c2ccccc12)C(=O)N[C@@H](CCCNC(=N)N)C(=O)N[C@@H](CCC(=O)O)C(=O)N[C@@H](CCCNC(=N)N)C(=O)N[C@@H](CCC(N)=O)C(=O)N[C@H](CCCNC(=N)N)C(N)=O

Second part, the compound before the results:

Row | SMILES | pKd [1] | Ratio [2]
3 | C[C@H](NC(=O)CCC(=O)O)C(=O)N[C@@H](CCCNC(=N)N)C(=O)N[C@@H](CCCNC(=N)N)C(=O)N[C@@H](CC(N)=O)C(=O)N[C@@H](CCCNC(=N)N)C(=O)N[C@@H](CCCNC(=N)N)C(=O)N[C@@H](CCCNC(=N)N)C(=O)N[C@@H](CCCNC(=N)N)C(=O)N[C@@H](Cc1c[nH]c2ccccc12)C(=O)N[C@@H](CCCNC(=N)N)C(=O)N[C@@H](CCC(=O)O)C(=O)N[C@@H](CCCNC(=N)N)C(=O)N[C@@H](CCC(N)=O)C(=O)N[C@H](CCCNC(=N)N)C(N)=O | 7.07 | 1
4 | Cc1cn(CC(=O)N(CCNC(=O)CCC(=O)O)CC(=O)NCCN(CC(=O)N[C@@H](C)C(=O)N[C@@H](CCCNC(=N)N)C(=O)N[C@@H](CCCNC(=N)N)C(=O)N[C@@H](CC(N)=O)C(=O)N[C@@H](CCCNC(=N)N)C(=O)N[C@@H](CCCNC(=N)N)C(=O)N[C@@H](CCCNC(=N)N)C(=O)N[C@@H](CCCNC(=N)N)C(=O)N[C@@H](Cc2c[nH]c3ccccc23)C(=O)N[C@@H](CCCNC(=N)N)C(=O)N[C@@H](CCC(=O)O)C(=O)N[C@@H](CCCNC(=N)N)C(=O)N[C@@H](CCC(N)=O)C(=O)N[C@H](CCCNC(=N)N)C(N)=O)C(=O)Cn2ccc(N)nc2=O)c(=O)[nH]c1=O | 7.57 | 3.2
5 | C[C@H](NC(=O)CN(CCNC(=O)CN(CCNC(=O)CN(CCNC(=O)CCC(=O)O)C(=O)Cn1cnc2c(=O)[nH]c(N)nc21)C(=O)Cn1cnc2c(=O)[nH]c(N)nc21)C(=O)Cn1ccc(N)nc1=O)C(=O)N[C@@H](CCCNC(=N)N)C(=O)N[C@@H](CCCNC(=N)N)C(=O)N[C@@H](CC(N)=O)C(=O)N[C@@H](CCCNC(=N)N)C(=O)N[C@@H](CCCNC(=N)N)C(=O)N[C@@H](CCCNC(=N)N)C(=O)N[C@@H](CCCNC(=N)N)C(=O)N[C@@H](Cc1c[nH]c2ccccc12)C(=O)N[C@@H](CCCNC(=N)N)C(=O)N[C@@H](CCC(=O)O)C(=O)N[C@@H](CCCNC(=N)N)C(=O)N[C@@H](CCC(N)=O)C(=O)N[C@H](CCCNC(=N)N)C(N)=O | 8.06 | 9.9

Reference: ChEMBL document CHEMBL1134253, “HIV Rev peptides conjugated with peptide nucleic acids and their efficient binding to RRE RNA” (Bioorg Med Chem Lett, 2001)
